Source: ChEMBL document CHEMBL1201862, “PubChem BioAssay data set” (2004)
Calls of active or inactive are those of the source.

Tests used:
[1] = P. falciparum ATP4 D1247Y mutant growth inhibitors, dose response, NITD609-resistant line, SYBR Green, dry powder (AID 1159571); type: functional, cell-based;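 also: parasites synchronized at ring stage by sorbitol before testing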
[2] = P. falciparum 3D7-ScDHODH growth inhibitors, dose response, SYBR Green, dry powder samples (AID 1159570); type: functional, cell-based;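 also: parasite growth measured after 72 hours of compound exposure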
[3] = P. falciparum Dd2 growth inhibitors, dose response, SYBR Green, cherry-picked samples (AID 1159567); type: functional, cell-based
[4] = P. falciparum Dd2 growth inhibitors, dose response, SYBR Green, dry powder samples (AID 1159566); type: functional, cell-based;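 also: potency for growth inhibition with lower SYBR green DNA signal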
[5] = target: Voltage-dependent T-type calcium channel subunit alpha-1H (Homo sapiens, UniProt O95180); type: functional;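 also: channel activity triggered by adding a high calcium stimulation buffer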
Voltage-dependent T-type calcium channel subunit alpha-1H, sequence (O95180 whole entry): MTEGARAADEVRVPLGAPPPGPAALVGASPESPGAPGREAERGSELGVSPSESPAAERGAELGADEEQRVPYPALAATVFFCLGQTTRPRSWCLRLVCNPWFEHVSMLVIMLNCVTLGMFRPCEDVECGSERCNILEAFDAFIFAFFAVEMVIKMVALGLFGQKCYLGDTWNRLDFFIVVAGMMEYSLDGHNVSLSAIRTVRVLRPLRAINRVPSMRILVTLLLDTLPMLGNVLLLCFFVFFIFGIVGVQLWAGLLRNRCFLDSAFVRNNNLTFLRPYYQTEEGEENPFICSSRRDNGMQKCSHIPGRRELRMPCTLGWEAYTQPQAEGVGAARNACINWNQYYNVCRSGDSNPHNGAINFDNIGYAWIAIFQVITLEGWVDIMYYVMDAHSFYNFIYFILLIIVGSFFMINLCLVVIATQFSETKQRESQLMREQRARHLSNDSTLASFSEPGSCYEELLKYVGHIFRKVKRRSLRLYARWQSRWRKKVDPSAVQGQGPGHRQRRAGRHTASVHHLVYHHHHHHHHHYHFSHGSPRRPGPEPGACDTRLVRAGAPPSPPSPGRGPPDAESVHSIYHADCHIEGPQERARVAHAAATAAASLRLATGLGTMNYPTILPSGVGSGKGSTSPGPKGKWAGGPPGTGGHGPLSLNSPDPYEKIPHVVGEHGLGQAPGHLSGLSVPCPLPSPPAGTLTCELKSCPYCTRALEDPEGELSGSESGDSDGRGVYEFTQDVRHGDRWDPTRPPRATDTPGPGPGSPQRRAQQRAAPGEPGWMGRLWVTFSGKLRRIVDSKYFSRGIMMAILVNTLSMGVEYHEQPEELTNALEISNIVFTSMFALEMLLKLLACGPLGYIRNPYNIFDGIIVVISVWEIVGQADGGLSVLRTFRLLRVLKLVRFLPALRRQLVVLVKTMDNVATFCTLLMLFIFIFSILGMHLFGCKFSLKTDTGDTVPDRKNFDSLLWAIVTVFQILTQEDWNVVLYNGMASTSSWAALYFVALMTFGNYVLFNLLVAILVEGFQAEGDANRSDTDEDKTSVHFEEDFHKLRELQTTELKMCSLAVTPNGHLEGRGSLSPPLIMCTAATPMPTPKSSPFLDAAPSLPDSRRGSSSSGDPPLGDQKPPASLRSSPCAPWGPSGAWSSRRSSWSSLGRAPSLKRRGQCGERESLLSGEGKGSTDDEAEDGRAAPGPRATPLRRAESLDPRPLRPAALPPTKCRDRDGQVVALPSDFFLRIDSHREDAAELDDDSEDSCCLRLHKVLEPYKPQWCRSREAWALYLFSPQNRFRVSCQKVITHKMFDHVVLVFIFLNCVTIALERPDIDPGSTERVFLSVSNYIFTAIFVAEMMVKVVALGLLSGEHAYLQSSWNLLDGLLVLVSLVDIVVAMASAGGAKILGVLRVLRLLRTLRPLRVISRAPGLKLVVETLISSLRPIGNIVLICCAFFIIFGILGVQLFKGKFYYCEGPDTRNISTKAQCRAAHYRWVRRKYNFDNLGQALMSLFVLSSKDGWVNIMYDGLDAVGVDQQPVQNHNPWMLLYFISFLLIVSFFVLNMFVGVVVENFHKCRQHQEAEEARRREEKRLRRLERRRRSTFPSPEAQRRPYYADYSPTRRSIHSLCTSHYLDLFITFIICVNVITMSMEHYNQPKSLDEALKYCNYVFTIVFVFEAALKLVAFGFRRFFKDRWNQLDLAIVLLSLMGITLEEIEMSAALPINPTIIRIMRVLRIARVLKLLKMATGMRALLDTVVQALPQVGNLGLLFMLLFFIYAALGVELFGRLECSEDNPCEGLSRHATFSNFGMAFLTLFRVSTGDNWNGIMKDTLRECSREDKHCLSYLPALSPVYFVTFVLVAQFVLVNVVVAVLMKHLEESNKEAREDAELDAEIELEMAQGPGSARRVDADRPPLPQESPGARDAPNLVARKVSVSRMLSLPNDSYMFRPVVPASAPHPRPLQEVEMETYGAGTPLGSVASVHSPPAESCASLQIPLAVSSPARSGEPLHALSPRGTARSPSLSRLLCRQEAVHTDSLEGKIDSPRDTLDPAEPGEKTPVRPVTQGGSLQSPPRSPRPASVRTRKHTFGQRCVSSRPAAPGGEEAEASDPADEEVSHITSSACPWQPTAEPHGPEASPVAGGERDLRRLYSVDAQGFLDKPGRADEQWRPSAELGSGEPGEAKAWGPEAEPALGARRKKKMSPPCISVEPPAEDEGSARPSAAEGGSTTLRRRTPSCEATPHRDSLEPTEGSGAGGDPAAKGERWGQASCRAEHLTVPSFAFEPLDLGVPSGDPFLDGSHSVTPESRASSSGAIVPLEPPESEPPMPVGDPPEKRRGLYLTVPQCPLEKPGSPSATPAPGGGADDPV

cells [6] = type: functional, cell-based
cells [7] = type: functional, cell-based; remark: listed apart in the source
Nonstructural protein 1 = Nonstructural protein 1 (Influenza A virus, UniProt Q194T2); type: functional, Influenza A virus (A/California/07/2009(H1N1))
Nonstructural protein 1, sequence (Q194T2 whole entry): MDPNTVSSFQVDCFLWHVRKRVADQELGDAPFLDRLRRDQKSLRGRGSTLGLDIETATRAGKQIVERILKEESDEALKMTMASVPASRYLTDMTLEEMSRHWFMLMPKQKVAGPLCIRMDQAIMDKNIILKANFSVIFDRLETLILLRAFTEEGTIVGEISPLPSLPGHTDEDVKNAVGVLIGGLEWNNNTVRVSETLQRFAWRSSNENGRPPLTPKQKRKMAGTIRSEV

[8] = target: T1, Histone-lysine N-methyltransferase NSD2 (Homo sapiens, UniProt O96028); type: biochemical
T1 sequence (O96028 whole entry): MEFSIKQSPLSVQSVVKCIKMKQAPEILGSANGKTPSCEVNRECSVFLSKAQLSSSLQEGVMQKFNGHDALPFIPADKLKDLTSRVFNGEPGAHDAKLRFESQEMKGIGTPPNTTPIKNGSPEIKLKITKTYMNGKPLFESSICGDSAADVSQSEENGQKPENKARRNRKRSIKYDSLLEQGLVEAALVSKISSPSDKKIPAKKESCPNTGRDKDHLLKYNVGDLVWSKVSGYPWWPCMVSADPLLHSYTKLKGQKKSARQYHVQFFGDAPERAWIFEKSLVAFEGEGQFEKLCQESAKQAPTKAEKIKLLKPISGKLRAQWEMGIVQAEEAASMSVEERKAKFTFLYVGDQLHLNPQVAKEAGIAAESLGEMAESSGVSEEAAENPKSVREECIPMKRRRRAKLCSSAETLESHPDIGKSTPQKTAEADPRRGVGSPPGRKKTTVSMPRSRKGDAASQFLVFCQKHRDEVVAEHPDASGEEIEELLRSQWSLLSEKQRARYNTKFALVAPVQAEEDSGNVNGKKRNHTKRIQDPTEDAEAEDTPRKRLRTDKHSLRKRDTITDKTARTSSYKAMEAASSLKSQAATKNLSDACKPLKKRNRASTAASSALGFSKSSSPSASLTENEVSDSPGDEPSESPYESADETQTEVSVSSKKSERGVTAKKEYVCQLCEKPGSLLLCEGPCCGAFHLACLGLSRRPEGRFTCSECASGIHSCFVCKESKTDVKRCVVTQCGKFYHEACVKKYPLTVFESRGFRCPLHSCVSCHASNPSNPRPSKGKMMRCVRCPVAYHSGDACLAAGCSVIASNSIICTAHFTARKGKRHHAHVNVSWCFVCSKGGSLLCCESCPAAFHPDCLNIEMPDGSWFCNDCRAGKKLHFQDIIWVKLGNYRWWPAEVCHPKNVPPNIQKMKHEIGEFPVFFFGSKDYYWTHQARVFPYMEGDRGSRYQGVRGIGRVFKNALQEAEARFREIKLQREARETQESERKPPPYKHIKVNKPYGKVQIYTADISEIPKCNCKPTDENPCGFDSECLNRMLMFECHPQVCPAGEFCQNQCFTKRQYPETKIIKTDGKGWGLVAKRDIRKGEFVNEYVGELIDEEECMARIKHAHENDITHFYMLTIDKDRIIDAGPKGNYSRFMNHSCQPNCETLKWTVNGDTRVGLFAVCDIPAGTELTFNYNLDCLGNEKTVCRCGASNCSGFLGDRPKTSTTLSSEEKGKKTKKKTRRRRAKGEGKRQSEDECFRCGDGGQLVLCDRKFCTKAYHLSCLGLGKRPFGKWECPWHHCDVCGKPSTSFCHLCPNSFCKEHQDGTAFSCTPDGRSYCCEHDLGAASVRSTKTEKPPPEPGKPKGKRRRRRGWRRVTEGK

[9] = A Cell Based Secondary Assay To Explore Cytotoxicity of Compounds that Sensitize Mycobacterium Tuberculosis to Beta-Lactam Antibiotics.; type: functional
Protein skinhead-1 = target: T2, Protein skinhead-1 (Caenorhabditis elegans, UniProt P34707); type: functional
T2 sequence (P34707 whole entry): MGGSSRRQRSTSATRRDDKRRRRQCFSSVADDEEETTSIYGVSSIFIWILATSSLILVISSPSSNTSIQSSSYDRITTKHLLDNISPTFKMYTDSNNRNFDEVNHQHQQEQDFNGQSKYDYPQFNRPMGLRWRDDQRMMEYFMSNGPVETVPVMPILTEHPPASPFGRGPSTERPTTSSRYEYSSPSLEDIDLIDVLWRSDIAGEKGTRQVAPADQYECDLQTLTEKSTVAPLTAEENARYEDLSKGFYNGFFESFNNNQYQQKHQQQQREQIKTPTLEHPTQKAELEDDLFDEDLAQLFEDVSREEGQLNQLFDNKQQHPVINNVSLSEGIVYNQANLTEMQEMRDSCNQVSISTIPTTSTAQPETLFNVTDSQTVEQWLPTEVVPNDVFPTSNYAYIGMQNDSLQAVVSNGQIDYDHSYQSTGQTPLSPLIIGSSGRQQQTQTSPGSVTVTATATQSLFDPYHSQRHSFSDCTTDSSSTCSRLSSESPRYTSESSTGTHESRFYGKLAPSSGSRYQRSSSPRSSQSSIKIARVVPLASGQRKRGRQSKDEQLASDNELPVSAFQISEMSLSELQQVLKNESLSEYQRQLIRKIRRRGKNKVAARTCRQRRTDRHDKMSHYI

INS1 = test: beta cell apoptosis inhibitors, cytokine rescue, dose response, luminescence, retest (AID 449756); type: functional, cell-based; conditions: Rattus norvegicus;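 also: cell death triggered by IL-1 beta plus TNF-alpha plus IFN-gamma mixture; protective hits raise ATP signal compared with cytokine alone wells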
[10] = HEp-2 cell cytotoxicity, dose response, cytotoxicity control for RSV inhibitor project, HTS (AID 2410); type: functional; conditions: human respiratory syncytial virus
Streptococcus = test: Group A Streptococcus viability loss, dose response, counter-screen for streptokinase expression inhibitor project, luminescence, BacTiterGlo (AID 1915); type: functional, organism-based;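 also: potency for reduction of bacterial viability or growth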
Streptokinase A = target: T3, Streptokinase A (Streptococcus pyogenes serotype M1, UniProt P10520); test: S. pyogenes streptokinase expression inhibitors, potency, dose response, plasminogen activation absorbance, OD405 (AID 1914); type: functional, Streptococcus pyogenes M1 GAS;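 also: secreted streptokinase activity via plasminogen activation per viability signal from cell pellet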
T3 sequence (P10520 whole entry): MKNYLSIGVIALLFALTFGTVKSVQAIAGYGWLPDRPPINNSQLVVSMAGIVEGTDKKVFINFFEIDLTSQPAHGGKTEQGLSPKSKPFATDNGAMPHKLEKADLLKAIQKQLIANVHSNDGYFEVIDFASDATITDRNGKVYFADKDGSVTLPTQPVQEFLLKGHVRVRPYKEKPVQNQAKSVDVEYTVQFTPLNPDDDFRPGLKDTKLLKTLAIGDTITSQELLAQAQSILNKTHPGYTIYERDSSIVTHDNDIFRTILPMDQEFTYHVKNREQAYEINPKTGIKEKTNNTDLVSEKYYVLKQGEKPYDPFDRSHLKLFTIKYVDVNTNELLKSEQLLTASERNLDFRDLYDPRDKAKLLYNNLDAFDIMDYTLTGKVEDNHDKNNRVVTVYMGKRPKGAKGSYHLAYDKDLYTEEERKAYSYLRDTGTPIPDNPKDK

Structure (SMILES)	AC50 [1]	AC50 [2]	AC50 [3]	AC50 [4]	EC50 [5]	also measured
CO[C@@H]1CN(C)C(=O)c2ccc(NC(=O)c3nc4ccccc4s3)cc2OC[C@H](C)N(Cc2ccncc2)C[C@@H]1C	725 nM (active)	1.86 µM (active)	985 nM (active)	792 nM (active)	–	–
Cc1ccc(S(=O)(=O)NC(=O)c2ccc(-c3ccc(-c4ccccc4)cc3)o2)c(C)c1	–	–	–	–	3.33 µM (active)	–
O=C(CN1CCCC1)N/N=C/c1c(O)ccc2ccccc12	–	–	–	–	–	EC50 (cells [6]): > 350 µM (not active); EC50 (cells [7]): 8.38 µM (active); IC50 (Nonstructural protein 1): 9.17 µM (active)
Cc1ccc(S(=O)(=O)N(C)C[C@H]2OCc3ccccc3-c3c(n(C)c4ccccc34)C(=O)N([C@H](C)CO)C[C@@H]2C)cc1	1080 nM (active)	1.27 µM (active)	2360 nM (active)	1470 nM (active)	–	–
Nc1c(C(=O)OCC2CCCO2)c2nc3ccccc3nc2n1C1CCCCC1 (stereo unspecified)	–	–	–	–	–	AC50 [8]: 10 µM (active)
CCOC(=O)c1c(C)nc2sc(C(=O)Nc3ccccc3)c(N)c2c1-c1ccc(OC)cc1	–	–	–	–	–	CC50 [9]: 3.99 µM (active)
CC1Cc2ccccc2N1C(=O)CSc1nc2ccccc2o1 (stereo unspecified)	–	–	–	–	9.56 µM (active)	IC50 (Protein skinhead-1): > 100 µM (inactive); AC50 (INS1): > 260 µM (inactive); CC50 [10]: 26.9 µM (active)
COc1ccc2c3c(n(C)c2c1)[C@@H](CO)N(C(=O)C1CC1)CC31CCN(C(=O)Nc2cccc(F)c2)CC1	441 nM (active)	0.171 µM (active)	506 nM (active)	343 nM (active)	–	–
Cc1cccc(N2CCN(CC(=O)Nc3nccs3)CC2)c1C	–	–	–	–	6.29 µM (active)	–
FC(F)Oc1ccccc1C1CC(c2ccc(Br)s2)Nc2ncnn21 (stereo unspecified)	–	–	–	–	–	EC50 (Streptococcus): > 150 µM (not active); EC50 (Streptokinase A): > 150 µM (not active); CC50 [9]: > 40 µM (active)
